Results reported in ChEMBL document CHEMBL4177683, “New terpenoids and thiophene derivatives from the aerial parts of Artemisia sieversiana” (Bioorg Med Chem Lett, 2017).

System: BV-2
Experiment: Antiinflammatory activity in mouse BV2 cells assessed as inhibition of LPS-stimulated nitric oxide production by Griess reagent based spectrophotometric analysis
Format: functional, cell-based

Row | SMILES | IC50
1 | O=c1c(O)c(-c2ccc(O)c(O)c2)oc2cc(O)cc(O)c12 [QUERCETIN] | 16.3 µM
2 | CC1=CC[C@@H]([C@](C)(O)[C@H]2CC[C@@]3(C)[C@@H]4C[C@@H](O)[C@H]5C(C)(C)OC(=O)C=C[C@@]56C[C@@]46CC[C@]23C)OC1=O | > 100 µM
3 | C=C1CC[C@@H](C(C)C)/C=C/C(=O)CC[C@H]1O | > 100 µM
4 | CC1=CC(=O)[C@]23O[C@@]2(C)C[C@H](O)[C@@H]2[C@H](OC(=O)[C@@H]2C)[C@@H]13 | > 100 µM
5 | CC(=O)O[C@H]1CC(C)=C2C(=O)C=C(C)[C@@H]2[C@H]2OC(=O)[C@@H](C)[C@@H]21 | > 100 µM
6 | CC1=C(CC[C@@H](C)O)C(C)(C)C[C@H](O)C1 | > 100 µM

Further lines, results first:

Row | IC50 | SMILES
7 | 79.5 µM | CC#Cc1ccc(C(=O)O)s1
8 | 11.9 µM | CC(=O)O[C@H]([C@@H]1C=C(C)C(=O)O1)[C@@H](C)C1[C@@H]2[C@@]3(O)O[C@@]4(CC[C@]12C)C(O)[C@]12OC(=O)C[C@H]1OC(C)(C)[C@@H]2CC[C@H]4C3=O (stereo partly drawn)
9 | 98.5 µM | CC#Cc1cc(O)c(C(C)=O)s1
10 | > 100 µM | C/C=C(/C)C(=O)O[C@@H]1C[C@H]2C(C)(C)O[C@@H]3CC(=O)O[C@@]32C[C@@]2(O)C[C@H](O)[C@]34O[C@@]5(C=C(C)C(=O)O5)C[C@@H](C)[C@H]3C[C@@H]3O[C@@]34[C@H]12
11 | 27.9 µM | C/C1=C\C[C@H](O)/C(C)=C/[C@H]2OC(=O)[C@H](C)[C@@H]2CC1
12 | 6.5 µM | CC(=O)O[C@H]1C[C@]2(C)O[C@@]23C(=O)C=C(C)C3[C@H]2OC(=O)[C@H](C)[C@H]12 (stereo partly drawn)
13 | 10.1 µM | CC(=O)O[C@H]([C@@H]1CC(C)C(=O)O1)[C@@H](C)C1[C@@H]2[C@@]3(O)O[C@@]4(CC[C@]12C)C(O)[C@]12OC(=O)C[C@H]1OC(C)(C)[C@@H]2CC[C@H]4C3=O (stereo partly drawn)
